In patent EP0494754A1, “3-hydroxypyridin-4-one derivatives as pharmaceutical compositions” (BRITISH TECHNOLOGY GROUP LTD, priority 1991, dated 1992):
Read-outs that look alike come from different tables or passages of the source.

Legend:
Type in all cases: cell-based
[1] = system: P. falciparum; assay: Inhibition of growth of P. falciparum in red cell culture (tritiated hypoxanthine uptake, continuous exposure to chelator); settings: for minimal effective concentration: Plasmodium falciparum, further study, method not detailed, read-out: dosage level at which marked growth inhibition was observed; for level of activity against red blood cells parasitized by P. falciparum (relative ranking): comparison between compounds, no figures; for growth inhibition of P. falciparum: 50 µmol/l iron binding concentration, after 30 hours, Figure 2; for percentage inhibition of growth after 30 hours as compared with the controls: iron binding concentration of 100 µmol of iron per litre, Figure 1
Experimental: (A) An uncloned strain of P. falciparum, ITO4, was grown on blood group O red cells using a modification of the method described by Trager et al in Science, 1976, […], 673. An atmopshere consisting of 1% oxygen, 3% carbon dioxide and 96% nitrogen was maintained throughout the experiments. Red cells were suspended at a hematocrit of 3% in RPMI 1640 that had been supplemented with 10% v/v human serum, 2 g/l glucose, 4 mM NaOH, 25 µg/ml gentamicin, 1.9 mM glutamine and 25 mM HEPES to form complete medium. For experimental purposes the red cells were then further diluted with the same medium to a final hematocrit of 1.5%. Synchronised parasite cultures were obtained using a combination of sorbitol lysis and gelatin flotation, as described respectively by Jensen et al in Am. J. Trop. Med. Hyg., 1978, 27, 1274 and Lambros et al in J. Parasitol., 1979, 65, 418, thus ensuring that only young ring forms remained. The starting parasitemia in each experiment was between 0.1 and 0.5%.
A red cell suspension containing only recently synchronised ring parasites was treated with 0.2 µCi of tritiated hypoxanthine per 100 µl of red cell suspension and one of ten chelating agents as identified in the Table was added in complete medium to the suspension in an amount such as to produce an iron binding concentration of 100 µmol of iron per litre (all of the chelators combine with iron in a ratio of 3 moles of chelator:1 mole of iron apart from the chelator number 10, desferrioxamine, which combines in a 1:1 molar ratio). The test cultures were immediately dispersed in 200 µl aliquots into 96 well microculture plates. Each chelator was tested in three or more wells and the whole experiment was carried out at least twice for each chelator. Control cultures were used in each experiment which contained no iron chelator.
The growth of the P. falciparum parasites was assessed both by light microscopy examination of thin films that had been stained with Giemsa and through measurement of tritiated hypoxanthine uptake, the cell cultures being harvested onto glass fibre filters and radioactivity, in terms of beta emission from each well, being measured in a flat bed liquid scintillation counter as described by Potter et al in Phys. Med. Biol., 1986, 31(4), 361.
The chelators tested consisted of 1-(2′-carboxyethyl)-3-hydroxy-2-methylpyridin-4-one (R₁ = CH₂CH₂CO₂H, R₂ = CH₃, R₃ = R₄ = H; compound 1) and, for the purposes of comparison with this chelator, nine other chelators not of formula (I) as defined hereinbefore, of which compounds 2 to 9 are 3-hydroxypyridin-4-ones and compound 10 is desferrioxamine. […] These findings were supported by a morphological examination of red cells sampled from the cultures. […] (B) The effect of using different dosage levels than the 100 µmol/l level used in (A) was studied employing the same procedure but using four dosage levels of 10 µmol/l, 25 µmol/l, 50 µmol/l and […]. Only the eight chelators which produced an inhibitory effect at 100 µmol/l were studied and controls containing no iron chelator were again employed.

[2] = system: P. falciparum; assay: 6 hour pulse exposure at different stages of the first parasite cycle, growth by tritiated hypoxanthine uptake; parameters: dose or concentration left out as unconfirmed; settings: Plasmodium falciparum
Experimental: In the case of 2-carboxymethyl-3-hydroxy-1-methylpyridin-4-one, 1-(2-carboxyethyl)-2-ethyl-3-hydroxypyridin-4-one and 1-(3-carboxypropyl)-2-methyl-3-hydroxypyridin-4-one a dosage level of 0.5 µmol/l was required to produce a similar level of growth inhibition and in the case of 3-hydroxy-2-methyl-1-(2-sulphoethyl)pyridin-4-one a dosage level of 1 µmol/l was required. (C) A culture of ring parasites obtained as in (A) was dispensed in 3 ml volumes into separate flasks. Different cultures were exposed during a 6 hour period to the compound 1 in a 100 µmol/l iron binding concentration at different stages during the first parasite cycle and controls containing no chelator were again employed. At the end of each 6 hour pulse, all cultures were washed twice in RPMI 1640 and the pellet was resuspended in complete medium. At 40 hours, when cells from cultures that had not been exposed at any time to a chelator contained segmenting schizonts, tritiated hypoxanthine was added to the incubation medium of all the cultures. Growth of the parasites was assessed after further periods of 42 hours (during second cycle), 65 hours (during third cycle) and 84 hours (during fourth cycle). Each pulse of compound 1 was duplicated in separate flasks. Morphologically, synchrony of the cultures was clearly lost during the third parasite cycle.
Furthermore, no morphological differences were detected between parasites that were sampled from these cultures and untreated parasites. On the other hand, incubation with compound 1 during the schizont stage (24-30 hours) of parasite development did produce an inhibitory effect on the growth of P. falciparum resulting in 38% and 30% growth inhibition during the second and third cycles. Morphologically these cultures contained a mixed population of degenerate forms and young ring parasites with evidence of red cell reinvasion. Thus it will be seen that the effect of compound 1 is maximised during the early schizont stage of the development of the parasite. However, the employment of 6 hour pulses in order to compare the effects of the compound at different stages, as opposed to the continuous treatment employed in (A), did lead to a lower level of anti-malarial effect.

[3] = system: MEL cells, clone 585; assay: Inhibition of growth of murine erythroleukaemia (MEL) cells, cell counting; settings: 50 µmol/l iron binding concentration; after 30 hours; Figure 2
Experimental: MEL cells, clone 585, were grown in suspension culture at 37°C in RPMI 1640 that had been supplemented with 13% v/v foetal calf serum, 25 µl/ml gentamicin, 1.9 mM glutamine and 2% diaminopurine as described by Peto et al in Br. J. Haematol., 1983, 54, 623. The cultures were maintained in an atmosphere containing 5% carbon dioxide and passaged every 3-4 days at a seeding concentration of 1-2 x 10⁴/ml to ensure that the cells were continually in logarithmic growth phase. Under these conditions, the doubling time for cell growth was 30-36 hours.
10 ml volumes of cell suspension were incubated in 50 ml flasks with each of the ten chelators identified in the Table at a 50 µmol/l iron binding concentration, controls being employed which contained no chelator. 400 µl aliquots were removed in duplicate for growth assessment at 24 hour intervals over the next four days. The experiment was repeated on three separate occasions, the initial cell concentration in each case being 2-3 x 10⁴ cells/ml. Cell growth was assessed both by examination of cultures using light microscopy and by cell counting. At various times throughout each experiment, 400 µl culture was added to 19.6 ml Isoton and the number of particles counted using a Coulter Counter ZN set at threshold 20 and attenuation 0.4
The effect of the different chelators on growth of the MEL cells after 30 hours was compared with the effect produced after a similar time by the same chelators at a 50 µmol/l iron binding concentration using the procedure described in Example 2(A). The results are illustrated in Figure 2. It will be seen that the compounds 2, 3, 4, 5, 6, 9 and 10 inhibited growth of MEL cells and of P. falciparum, the minimum growth inhibition being 80% and 70% respectively. […] When these two groups of chelators were examined together a close linear correlation (r = 0.978) was found between the degree of growth inhibition produced in both types of cell for each chelator studied. The compound 1 was distinguished from all of the other chelators in being the only one to have no significant inhibitory effect on the growth of MEL cells (<10%) whilst at the same time producing a substantial inhibitory effect on the growth of P. falciparum (>75%).

SMILES | minimal effective concentration [1] | growth inhibition of P. falciparum [1] | percentage inhibition of growth after 30 hours as compared with the controls [1] | growth inhibition of MEL cells [3] | further results
Cc1c(O)c(=O)ccn1CCS(=O)(=O)O [3-hydroxy-2-methyl-1-(2-sulphoethyl)-pyridin-4-one] | 1 µM |  |  |  | 
Cn1ccc(=O)c(O)c1CC(=O)O [(5), 2-carboxymethyl-3-hydroxy-1-methylpyridin-4-one] | 0.5 µM |  |  |  | 
CCc1c(O)c(=O)ccn1CCC(=O)O [(12), 1-(2-carboxyethyl)-2-ethyl-3-hydroxypyridin-4-one] | 0.5 µM |  |  |  | level of activity against red blood cells parasitized by P. falciparum (relative ranking) [1]: higher level of activity than compound (9)
Cc1c(O)c(=O)ccn1CCCC(=O)O [(16), 1-(3-carboxypropyl)-2-methyl-3-hydroxypyridin-4-one] | 0.5 µM |  |  |  | level of activity against red blood cells parasitized by P. falciparum (relative ranking) [1]: higher level of activity than compound (9)
Cc1c(O)c(=O)ccn1CCC(=O)O [compound 1, 1-(2-carboxyethyl)-3-hydroxy-2-methylpyridin-4-one] | 0.1 µM | > 75% | more than 65% | < 10% | level of activity against red blood cells parasitized by P. falciparum (relative ranking) [1]: higher level of activity against red blood cells parasitized by P. falciparum than compounds (12) and (16); inhibition ([2]; 6 hour pulse at 6-12 hours of first cycle, read-out: growth inhibition during the third cycle): 0%; inhibition ([2]; 6 hour pulse at 12-18 hours of first cycle, read-out: growth inhibition during the second cycle): 11.4%; inhibition ([2]; 6 hour pulse at 12-18 hours of first cycle, read-out: growth inhibition during the third cycle): 12%; inhibition ([2]; 6 hour pulse at 18-24 hours of first cycle, read-out: growth inhibition during the second cycle): 0%; inhibition ([2]; 6 hour pulse at 18-24 hours of first cycle, read-out: growth inhibition during the third cycle): 0%; inhibition ([2]; 6 hour pulse during the schizont stage (24-30 hours), read-out: growth inhibition during the second cycle): 38%; inhibition ([2]; 6 hour pulse during the schizont stage (24-30 hours), read-out: growth inhibition during the third cycle): 30%
Cc1c(O)c(=O)ccn1C [compound 2, 3-hydroxy-1,2-dimethylpyridin-4-one] |  | ≥ 70% | more than 65% | ≥ 80% | 
CC1=NC=CC(=O)C1O (stereo not shown) [compound 3, 3-hydroxy-2-methylpyridin-4-one] |  | ≥ 70% | more than 65% | ≥ 80% | 
Cc1c(O)c(=O)ccn1CCO [compound 4, 3-hydroxy-1-(2-hydroxyethyl)-2-methylpyridin-4-one] |  | ≥ 70% | more than 65% | ≥ 80% | 
Cc1c(O)c(=O)ccn1CCN.Cl [compound 5, 1-(2-aminoethyl)-3-hydroxy-2-methylpyridin-4-one hydrochloride] |  | ≥ 70% | more than 65% | ≥ 80% | 
COCCn1ccc(=O)c(O)c1C [compound 6, 3-hydroxy-1-(2-methoxyethyl)-2-methylpyridin-4-one] |  | ≥ 70% | more than 65% | ≥ 80% | 
Cc1c(O)c(=O)ccn1CCCCCC(=O)O [compound 7, 1-(5-carboxypentyl)-3-hydroxy-2-methylpyridin-4-one] |  | little inhibitory effect | less than 12% | little inhibitory effect | 
Cc1c(O)c(=O)ccn1CCCCCC(=O)NCCC(=O)O [compound 8, 1-(5-(N-(2-carboxyethyl)-carbamoyl)pentyl)-3-hydroxy-2-methylpyridin-4-one] |  | little inhibitory effect | less than 12% | little inhibitory effect | 
CCc1c(O)c(=O)ccn1C [compound 9, 2-ethyl-3-hydroxy-1-methyl-pyridin-4-one] |  | ≥ 70% | more than 65% | ≥ 80% | 
Cc1c(O)c(=O)ccn1CC(=O)O [compound (9), 1-carboxymethyl-3-hydroxy-2-methylpyridin-4-one] |  |  |  |  | level of activity against red blood cells parasitized by P. falciparum (relative ranking) [1]: somewhat greater than that of the compound 3-hydroxy-2-methyl-1-(2-sulphoethyl)pyridin-4-one
